Assay results published in PubChem BioAssay AID248 (DTP/NCI, 2004).
Where “and” joins values, the source holds several entries; their conditions need not be identical. Equal values may be shown once. Inconclusive results and toxic doses are left out. No stated cut-off is given here; in the data, active means T/C of 150% or more; inactive means T/C below 125%.

Tested on: L1210 leukemia ip in BDF1 mice, survival T/C
Test: NCI In Vivo Anticancer Drug Screen. Data for tumor model L1210 Leukemia (intraperitoneal) in B6D2F1 (BDF1) mice
Conditions: endpoint: mean survival time, higher = longer survival
Summary of the method: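 Survival endpoint. Drug-treated group vs vehicle group, expressed as T divided by C. Tumor passaged by transplantation.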

[1] = dose: 50.0 mg/kg/injection, schedule: Q01DX009 (ip), vehicle: saline with Tween-80
[2] = dose: 100.0 mg/kg/injection, schedule: Q01DX009 (ip), vehicle: saline with Tween-80
[3] = dose: 200.0 mg/kg/injection, schedule: Q01DX009 (ip), vehicle: saline with Tween-80
[4] = dose: 100.0 mg/kg/injection, schedule: Q04DX003 (ip), vehicle: saline with Tween-80
[5] = dose: 400.0 mg/kg/injection, schedule: Q04DX003 (ip), vehicle: saline with Tween-80
[6] = dose: 200.0 mg/kg/injection, schedule: Q04DX003 (ip), vehicle: saline with Tween-80
[7] = dose: 25.0 mg/kg/injection, schedule: Q01DX009 (ip), vehicle: saline
[8] = dose: 50.0 mg/kg/injection, schedule: Q01DX009 (ip), vehicle: saline
[9] = dose: 200.0 mg/kg/injection, schedule: Q01DX001 (ip), vehicle: carboxymethylcellulose (CMC)
[10] = dose: 100.0 mg/kg/injection, schedule: Q01DX001 (ip), vehicle: carboxymethylcellulose (CMC)

Measured: T/C

O=C(O)CCCC(=O)CCCC(=O)O
inactive: dose: 100.0 mg/kg/injection, schedule: Q01DX001 (ip), vehicle: saline 98 % of control | dose: 200.0 mg/kg/injection, schedule: Q01DX001 (ip), vehicle: saline 93 % of control | dose: 400.0 mg/kg/injection, schedule: Q01DX001 (ip), vehicle: saline 104 % of control

Cc1ccc(SC(=S)Sc2ccc(C)cc2)cc1
inactive: [1] 91 % of control | [2] 91 % of control | [3] 87 % of control

Cc1cc(Oc2ccc(Cl)cc2NC(=O)Nc2cccc(C(F)(F)F)c2)cc(S(=O)(=O)O)c1Cl
inactive: dose: 25.0 mg/kg/injection, schedule: Q01DX009 (ip), vehicle: saline sonified 101 % of control | dose: 50.0 mg/kg/injection, schedule: Q01DX009 (ip), vehicle: saline sonified 98 % of control | dose: 100.0 mg/kg/injection, schedule: Q01DX009 (ip), vehicle: saline sonified 90 % of control

CCCCCCCCCCCCCCNCCCCCCCCCCCCCC
inactive: dose: 50.0 mg/kg/injection, schedule: Q01DX009 (ip), vehicle: Klucel (hydroxypropylcellulose) (HPC) 95 % of control | dose: 50.0 mg/kg/injection, schedule: Q04DX003 (ip), vehicle: Klucel (hydroxypropylcellulose) (HPC) 105 % of control | dose: 100.0 mg/kg/injection, schedule: Q01DX009 (ip), vehicle: Klucel (hydroxypropylcellulose) (HPC) 101 % of control | dose: 100.0 mg/kg/injection, schedule: Q04DX003 (ip), vehicle: Klucel (hydroxypropylcellulose) (HPC) 101 % of control | dose: 200.0 mg/kg/injection, schedule: Q04DX003 (ip), vehicle: Klucel (hydroxypropylcellulose) (HPC) 95 % of control

NNC(=O)OC12CC3CC(CC(C3)C1)C2
inactive: dose: 25.0 mg/kg/injection, schedule: Q01DX009 (ip), vehicle: saline with Tween-80 90 % of control | [1] 88 % of control | [2] 98 % of control | [4] 94 % of control

O=C(Nc1ccc(CCC2=NCCCN2)cc1)c1ccc(C(=O)Nc2ccc(CCC3=NCCCN3)cc2)cc1
inactive: dose: 60.0 mg/kg/injection, schedule: Q01DX Z (ip), vehicle: saline 118 % of control | dose: 120.0 mg/kg/injection, schedule: Q01DX Z (ip), vehicle: saline 110 % of control | dose: 240.0 mg/kg/injection, schedule: Q01DX Z (ip), vehicle: saline 112 % of control

CCCCCCC1N(Cc2ccccc2N(C)C)CCCN1Cc1ccccc1N(C)C
inactive: dose: 75.0 mg/kg/injection, schedule: Q01DX001 (ip), vehicle: saline 94 % of control | dose: 150.0 mg/kg/injection, schedule: Q01DX001 (ip), vehicle: saline 94 % of control | dose: 300.0 mg/kg/injection, schedule: Q01DX001 (ip), vehicle: saline 89 % of control

O=P(Oc1ccccc1)(Oc1ccccc1)C(Nc1ccccc1)c1ccccc1 (configuration not stated)
inactive: [5] 90 % of control

COc1ccc(Nc2nc(N)nc(CNc3ccc(Cl)cc3)n2)cc1
inactive: [4] 98 % of control | [6] 103 % of control | [5] 98 % of control

CC(=O)OC1C2CC3C(C2)C31 (configuration not stated)
inactive: [1] 105 % of control | [2] 97 % of control | [3] 94 % of control

CSCOC1C(COC(c2ccccc2)(c2ccccc2)c2ccccc2)OC(OCc2ccccc2)C(NC(C)=O)C1OCc1ccccc1 (configuration not stated)
inactive: dose: 25.0 mg/kg/injection, schedule: Q01DX001 (ip), vehicle: saline with Tween-80 95 % of control | dose: 50.0 mg/kg/injection, schedule: Q01DX001 (ip), vehicle: saline with Tween-80 91 % of control | dose: 100.0 mg/kg/injection, schedule: Q01DX001 (ip), vehicle: saline with Tween-80 101 % of control and 91 % of control | dose: 400.0 mg/kg/injection, schedule: Q01DX001 (ip), vehicle: saline with Tween-80 94 % of control

CCN(CC)CCCC(C)Nc1ccc(NC(C)CCCN(CC)CC)c2c1C(=O)c1ccccc1C2=O (configuration not stated)
inactive: [7] 96 % of control | dose: 25.0 mg/kg/injection, schedule: Q04DX002 (ip), vehicle: saline 92 % of control | [8] 89 % of control | dose: 50.0 mg/kg/injection, schedule: Q04DX002 (ip), vehicle: saline 103 % of control | dose: 100.0 mg/kg/injection, schedule: Q04DX002 (ip), vehicle: saline 96 % of control and 98 % of control

O=C(CCn1cccc1)c1csc2ccccc12
inactive: dose: 10.0 mg/kg/injection, schedule: Q01DX001 (ip), vehicle: carboxymethylcellulose (CMC) 97 % of control | dose: 20.0 mg/kg/injection, schedule: Q01DX001 (ip), vehicle: carboxymethylcellulose (CMC) 98 % of control | dose: 40.0 mg/kg/injection, schedule: Q01DX001 (ip), vehicle: carboxymethylcellulose (CMC) 100 % of control | dose: 80.0 mg/kg/injection, schedule: Q01DX001 (ip), vehicle: carboxymethylcellulose (CMC) 100 % of control | [9] 88 % of control

CCC1(C)n2c(=O)c3ccccc3c(=O)n21
inactive: dose: 100.0 mg/kg/injection, schedule: Q04DX002 (ip), vehicle: saline with Tween-80 97 % of control | dose: 200.0 mg/kg/injection, schedule: Q04DX002 (ip), vehicle: saline with Tween-80 101 % of control | dose: 400.0 mg/kg/injection, schedule: Q04DX002 (ip), vehicle: saline with Tween-80 90 % of control

CCOC(=O)N(CCCCCCNC(c1ccccc1)S(=O)(=O)O)c1ccccc1 (configuration not stated)
inactive: dose: 6.0 mg/kg/injection, schedule: Q01DX009 (ip), vehicle: saline 109 % of control | dose: 12.0 mg/kg/injection, schedule: Q01DX009 (ip), vehicle: saline 103 % of control | [7] 106 % of control | [8] 97 % of control | [10] 98 % of control | dose: 100.0 mg/kg/injection, schedule: Q01DX009 (ip), vehicle: saline 86 % of control

O=S1(=O)C=C(Br)CC1
inactive: dose: 75.0 mg/kg/injection, schedule: Q01DX001 (ip), vehicle: saline with Tween-80 97 % of control | dose: 150.0 mg/kg/injection, schedule: Q01DX001 (ip), vehicle: saline with Tween-80 97 % of control | dose: 300.0 mg/kg/injection, schedule: Q01DX001 (ip), vehicle: saline with Tween-80 95 % of control

CCOC(=O)N1Cc2cc3cc(OC)c(OC)cc3nc2C1
inactive: [2] 109 % of control | [4] 106 % of control | [3] 94 % of control | [6] 97 % of control | dose: 400.0 mg/kg/injection, schedule: Q01DX009 (ip), vehicle: saline with Tween-80 108 % of control | [5] 96 % of control

COC(=O)C(c1ccccc1)C1(O)CCN(CC2COc3ccccc3O2)CC1 (configuration not stated)
inactive: dose: 25.0 mg/kg/injection, schedule: Q01DX001 (ip), vehicle: Klucel (hydroxypropylcellulose) (HPC) 96 % of control | dose: 50.0 mg/kg/injection, schedule: Q01DX001 (ip), vehicle: Klucel (hydroxypropylcellulose) (HPC) 93 % of control | dose: 100.0 mg/kg/injection, schedule: Q01DX001 (ip), vehicle: Klucel (hydroxypropylcellulose) (HPC) 97 % of control and 102 % of control

O=C1c2ccccc2C(=O)c2c(NCCN3CCOCC3)ccc(NCCN3CCOCC3)c21
inactive: dose: 87.5 mg/kg/injection, schedule: Q01DX009 (ip), vehicle: Klucel (hydroxypropylcellulose) (HPC) 96 % of control | dose: 175.0 mg/kg/injection, schedule: Q01DX009 (ip), vehicle: Klucel (hydroxypropylcellulose) (HPC) 102 % of control | dose: 350.0 mg/kg/injection, schedule: Q01DX009 (ip), vehicle: Klucel (hydroxypropylcellulose) (HPC) 107 % of control

CCCC(C(=O)O)C(CCC)C(=O)O (configuration not stated)
inactive: [2] 92 % of control | [3] 96 % of control

CC(=O)OCC(=O)[C@@]1(O)CC[C@H]2[C@@H]3CCC4=CC(=O)CC[C@]4(C)C3=CC[C@@]21C
inactive: dose: 12.5 mg/kg/injection, schedule: Q04DX003 (ip), vehicle: saline with Tween-80 95 % of control | dose: 25.0 mg/kg/injection, schedule: Q04DX003 (ip), vehicle: saline with Tween-80 93 % of control | dose: 50.0 mg/kg/injection, schedule: Q04DX003 (ip), vehicle: saline with Tween-80 90 % of control

Brc1ccc(-c2csc(Nc3nc(-c4ccc(Br)cc4)cs3)n2)cc1
inactive: [10] 102 % of control | [9] 98 % of control | dose: 250.0 mg/kg/injection, schedule: Q01DX015 (ip), vehicle: carboxymethylcellulose (CMC) 100 % of control | dose: 400.0 mg/kg/injection, schedule: Q01DX001 (ip), vehicle: carboxymethylcellulose (CMC) 107 % of control | dose: 500.0 mg/kg/injection, schedule: Q01DX015 (ip), vehicle: carboxymethylcellulose (CMC) 100 % of control | dose: 750.0 mg/kg/injection, schedule: Q01DX015 (ip), vehicle: carboxymethylcellulose (CMC) 113 % of control | dose: 1000.0 mg/kg/injection, schedule: Q01DX015 (ip), vehicle: carboxymethylcellulose (CMC) 100 % of control
